Reference: ChEMBL document CHEMBL3352057, “Novel fluorinated pyrrolo[1,2-a]pyrazine-2,6-dione derivatives: synthesis and anticonvulsant evaluation in animal models of epilepsy” (Bioorg Med Chem, 2014)
Calls of active or inactive are those of the source.

Key:
Mus musculus [1] = assay: Anticonvulsant activity in ip dosed albino CF1 mouse assessed as protection against 6 Hz current-induced seizures measured as time to peak effect; assay type: functional
Mus musculus [2] = assay: Anticonvulsant activity in ip dosed corneal kindled albino CF1 mouse seizure model; assay type: functional
Mus musculus [3] = assay: Neurotoxicity in albino CF1 mouse assessed as loss of righting reflex at 100 mg/kg, ip measured after 0.25 hr; assay type: toxicity, organism-based; design: dose 100 mg/kg, route intraperitoneal; conditions: in vivo
Mus musculus [4] = assay: Anticonvulsant activity in albino CF1 mouse assessed as protection against subcutaneous metrazol-induced seizures at 100 mg/kg, ip measured after 0.5 hr; assay type: functional, organism-based; design: dose 100 mg/kg
Mus musculus [5] = assay: Anticonvulsant activity in albino CF1 mouse assessed as protection against maximal electroshock-induced seizures at 100 mg/kg, ip measured after 0.5 hr; assay type: functional, organism-based; design: dose 100 mg/kg
Mus musculus [6] = assay: Anticonvulsant activity in albino CF1 mouse assessed as protection against 32 mA current-induced seizures at 100 mg/kg, ip measured after 2 hrs; assay type: functional, organism-based; design: dose 100 mg/kg
Mus musculus [7] = assay: Anticonvulsant activity in ip dosed albino CF1 mouse assessed as protection against maximal electroshock-induced seizures measured as time to peak effect; assay type: functional
Rattus norvegicus [8] = assay: Anticonvulsant activity in Sprague-Dawley rat assessed as protection against maximal electroshock-induced seizures at 30 mg/kg, po measured after 2 hrs; assay type: functional, organism-based; design: dose 30 mg/kg
Mus musculus [9] = assay: Neurotoxicity in albino CF1 mouse at 100 mg/kg, ip measured after 0.5 hr; assay type: toxicity, organism-based; design: dose 100 mg/kg, route intraperitoneal; conditions: in vivo
[10] = Neurotoxicity in ip dosed albino CF1 mouse; assay type: toxicity, organism-based; conditions: in vivo
Rattus norvegicus [11] = assay: Anticonvulsant activity in Sprague-Dawley rat assessed as protection against maximal electroshock-induced seizures at 30 mg/kg, po measured after 4 hrs; assay type: functional, organism-based; design: dose 30 mg/kg
Rattus norvegicus [12] = assay: Anticonvulsant activity in Sprague-Dawley rat assessed as protection against maximal electroshock-induced seizures at 30 mg/kg, ip measured after 2 hrs; assay type: functional, organism-based; design: dose 30 mg/kg
[13] = Neurotoxicity in ip dosed albino CF1 mouse measured at 0.25 hr post dose; assay type: toxicity, organism-based; conditions: in vivo
Rattus norvegicus [14] = assay: Anticonvulsant activity in Sprague-Dawley rat assessed as protection against maximal electroshock-induced seizures at 30 mg/kg, po measured after 0.5 hr; assay type: functional, organism-based; design: dose 30 mg/kg
Mus musculus [15] = assay: Anticonvulsant activity in albino CF1 mouse assessed as protection against maximal electroshock-induced seizures at 100 mg/kg, ip measured after 1 hr; assay type: functional, organism-based; design: dose 100 mg/kg
Mus musculus [16] = assay: Neurotoxicity in 32 mA current-induced seizure albino CF1 mouse model at 100 mg/kg, ip measured after 0.5 hr; assay type: toxicity, organism-based; design: dose 100 mg/kg, route intraperitoneal; conditions: in vivo
Mus musculus [17] = assay: Anticonvulsant activity in albino CF1 mouse assessed as protection against 32 mA current-induced seizures at 100 mg/kg, ip measured after 0.5 hr; assay type: functional, organism-based; design: dose 100 mg/kg
Mus musculus [18] = assay: Anticonvulsant activity in ip dosed albino CF1 mouse assessed as protection against subcutaneous metrazol-induced seizures; assay type: functional
Mus musculus [19] = assay: Anticonvulsant activity in ip dosed corneal kindled albino CF1 mouse seizure model assessed as time to peak effect; assay type: functional
Rattus norvegicus [20] = assay: Neurotoxicity in MES Sprague-Dawley rat model at 30 mg/kg, ip measured after 2 hrs; assay type: toxicity, organism-based; design: dose 30 mg/kg, route intraperitoneal; conditions: in vivo
Mus musculus [21] = assay: Neurotoxicity in 32 mA current-induced seizure albino CF1 mouse model at 100 mg/kg, ip measured after 2 hrs; assay type: toxicity, organism-based; design: dose 100 mg/kg, route intraperitoneal; conditions: in vivo
Mus musculus [22] = assay: Anticonvulsant activity in albino CF1 mouse assessed as protection against maximal electroshock-induced seizures at 100 mg/kg, ip measured after 0.25 hr; assay type: functional, organism-based; design: dose 100 mg/kg
Rattus norvegicus [23] = assay: Neurotoxicity in MES Sprague-Dawley rat model at 30 mg/kg, po measured after 4 hrs; assay type: toxicity, organism-based; design: dose 30 mg/kg, route oral; conditions: in vivo
Mus musculus [24] = assay: Anticonvulsant activity in albino CF1 mouse assessed as protection against subcutaneous metrazol-induced seizures at 100 mg/kg, ip measured after 4 hrs; assay type: functional, organism-based; design: dose 100 mg/kg
Rattus norvegicus [25] = assay: Neurotoxicity in MES Sprague-Dawley rat model at 30 mg/kg, po measured after 0.25 hr; assay type: toxicity, organism-based; design: dose 30 mg/kg, route oral; conditions: in vivo
[26] = Protective index, ratio of TD50 for neurotoxicity in ip dosed albino CF1 mouse to ED50 for anticonvulsant activity in ip dosed MES albino CF1 mouse model; assay type: toxicity, organism-based; conditions: in vivo, read-out: Ratio TD50/ED50
Mus musculus [27] = assay: Anticonvulsant activity in ip dosed albino CF1 mouse assessed as protection against 32 mA current-induced seizures; assay type: functional
Rattus norvegicus [28] = assay: Neurotoxicity in MES Sprague-Dawley rat model at 30 mg/kg, ip measured after 0.25 hr; assay type: toxicity, organism-based; design: dose 30 mg/kg, route intraperitoneal; conditions: in vivo
Mus musculus [29] = assay: Neurotoxicity in albino CF1 mouse at 100 mg/kg, ip measured after 0.25 hr; assay type: toxicity, organism-based; design: dose 100 mg/kg, route intraperitoneal; conditions: in vivo
Mus musculus [30] = assay: Anticonvulsant activity in albino CF1 mouse assessed as protection against subcutaneous metrazol-induced seizures at 300 mg/kg, ip measured after 0.5 hr; assay type: functional, organism-based; design: dose 300 mg/kg
Mus musculus [31] = assay: Neurotoxicity in 32 mA current-induced seizure albino CF1 mouse model at 100 mg/kg, ip measured after 1 hr; assay type: toxicity, organism-based; design: dose 100 mg/kg, route intraperitoneal; conditions: in vivo
Mus musculus [32] = assay: Anticonvulsant activity in albino CF1 mouse assessed as protection against 32 mA current-induced seizures at 100 mg/kg, ip measured after 1 hr; assay type: functional, organism-based; design: dose 100 mg/kg
Mus musculus [33] = assay: Neurotoxicity in 32 mA current-induced seizure albino CF1 mouse model at 100 mg/kg, ip measured after 4 hrs; assay type: toxicity, organism-based; design: dose 100 mg/kg, route intraperitoneal; conditions: in vivo
Rattus norvegicus [34] = assay: Neurotoxicity in MES Sprague-Dawley rat model at 30 mg/kg, ip measured after 0.5 hr; assay type: toxicity, organism-based; design: dose 30 mg/kg, route intraperitoneal; conditions: in vivo
Rattus norvegicus [35] = assay: Anticonvulsant activity in Sprague-Dawley rat assessed as protection against maximal electroshock-induced seizures at 30 mg/kg, ip measured after 1 hr; assay type: functional, organism-based; design: dose 30 mg/kg
Rattus norvegicus [36] = assay: Neurotoxicity in MES Sprague-Dawley rat model at 30 mg/kg, po measured after 2 hrs; assay type: toxicity, organism-based; design: dose 30 mg/kg, route oral; conditions: in vivo
Rattus norvegicus [37] = assay: Anticonvulsant activity in Sprague-Dawley rat assessed as protection against maximal electroshock-induced seizures at 30 mg/kg, po measured after 1 hr; assay type: functional, organism-based; design: dose 30 mg/kg
Rattus norvegicus [38] = assay: Anticonvulsant activity in pilocarpine-induced status prevention Sprague-Dawley rat model assessed as weight change 24 hrs post-first stage 3 seizure of protected rat at 200 mg/kg, ip; assay type: functional; conditions: route intraperitoneal
Rattus norvegicus [39] = assay: Anticonvulsant activity in Sprague-Dawley rat assessed as protection against maximal electroshock-induced seizures at 30 mg/kg, po measured after 0.25 hr; assay type: functional, organism-based; design: dose 30 mg/kg
Rattus norvegicus [40] = assay: Neurotoxicity in MES Sprague-Dawley rat model at 30 mg/kg, po measured after 1 hr; assay type: toxicity, organism-based; design: dose 30 mg/kg, route oral; conditions: in vivo
Mus musculus [41] = assay: Anticonvulsant activity in ip dosed albino CF1 mouse assessed as protection against maximal electroshock-induced seizures; assay type: functional
Rattus norvegicus [42] = assay: Neurotoxicity in MES Sprague-Dawley rat model at 30 mg/kg, po measured after 0.5 hr; assay type: toxicity, organism-based; design: dose 30 mg/kg, route oral; conditions: in vivo
Rattus norvegicus [43] = assay: Anticonvulsant activity in Sprague-Dawley rat assessed as protection against maximal electroshock-induced seizures at 30 mg/kg, ip measured after 0.25 hr; assay type: functional, organism-based; design: dose 30 mg/kg
Mus musculus [44] = assay: Neurotoxicity in albino CF1 mouse at 100 mg/kg, ip measured after 1 hr; assay type: toxicity, organism-based; design: dose 100 mg/kg, route intraperitoneal; conditions: in vivo
Rattus norvegicus [45] = assay: Neurotoxicity in MES Sprague-Dawley rat model at 30 mg/kg, ip measured after 1 hr; assay type: toxicity, organism-based; design: dose 30 mg/kg, route intraperitoneal; conditions: in vivo
Rattus norvegicus [46] = assay: Neurotoxicity in MES Sprague-Dawley rat model at 30 mg/kg, ip measured after 4 hrs; assay type: toxicity, organism-based; design: dose 30 mg/kg, route intraperitoneal; conditions: in vivo
Mus musculus [47] = assay: Neurotoxicity in albino CF1 mouse at 100 mg/kg, ip measured after 4 hrs; assay type: toxicity, organism-based; design: dose 100 mg/kg, route intraperitoneal; conditions: in vivo
Rattus norvegicus [48] = assay: Anticonvulsant activity in Sprague-Dawley rat assessed as protection against maximal electroshock-induced seizures at 30 mg/kg, ip measured after 4 hrs; assay type: functional, organism-based; design: dose 30 mg/kg
Rattus norvegicus [49] = assay: Anticonvulsant activity in pilocarpine-induced status prevention Sprague-Dawley rat model assessed as weight change 24 hrs post-first stage 3 seizure of non-protected rat at 200 mg/kg, ip measured after 0.5 hr; assay type: functional; conditions: route intraperitoneal
Mus musculus [50] = assay: Anticonvulsant activity in albino CF1 mouse assessed as protection against maximal electroshock-induced seizures at 100 mg/kg, ip measured after 4 hrs; assay type: functional, organism-based; design: dose 100 mg/kg
Rattus norvegicus [51] = assay: Anticonvulsant activity in Sprague-Dawley rat assessed as protection against maximal electroshock-induced seizures at 30 mg/kg, ip measured after 0.5 hr; assay type: functional, organism-based; design: dose 30 mg/kg
Mus musculus [52] = assay: Anticonvulsant activity in albino CF1 mouse assessed as protection against 32 mA current-induced seizures at 100 mg/kg, ip measured after 0.25 hr; assay type: functional, organism-based; design: dose 100 mg/kg
Mus musculus [53] = assay: Anticonvulsant activity in albino CF1 mouse assessed as protection against 32 mA current-induced seizures at 100 mg/kg, ip measured after 4 hrs; assay type: functional, organism-based; design: dose 100 mg/kg
Mus musculus [54] = assay: Neurotoxicity in 32 mA current-induced seizure albino CF1 mouse model at 100 mg/kg, ip measured after 0.25 hr; assay type: toxicity, organism-based; design: dose 100 mg/kg, route intraperitoneal; conditions: in vivo

Cl.O=C1NC(=O)[C@@H]2CCCN2[C@H]1c1cccc(C(F)(F)F)c1
inactive: Activity (Mus musculus [4]) | Activity (Mus musculus [5]) | Activity (Mus musculus [6]) | Activity (Rattus norvegicus [8]) | Activity (Rattus norvegicus [11]) | Activity (Rattus norvegicus [12]) | Activity (Rattus norvegicus [14]) | Activity (Mus musculus [24]) | Activity (Mus musculus [32]) | Activity (Rattus norvegicus [35]) | Activity (Rattus norvegicus [37]) | Activity (Rattus norvegicus [39]) | Activity (Rattus norvegicus [43]) | Activity (Rattus norvegicus [48]) | Activity (Mus musculus [50]) | Activity (Rattus norvegicus [51]) | Activity (Mus musculus [53])
269 µmol/kg: TD50 [10]
116 µmol/kg: ED50 (Mus musculus [2])
165 µmol/kg: ED50 (Mus musculus [41])
Non-toxic: Activity (Mus musculus [9]) | Activity (Mus musculus [16]) | Activity (Rattus norvegicus [20]) | Activity (Mus musculus [21]) | Activity (Rattus norvegicus [23]) | Activity (Rattus norvegicus [25]) | Activity (Rattus norvegicus [28]) | Activity (Mus musculus [31]) | Activity (Mus musculus [33]) | Activity (Rattus norvegicus [34]) | Activity (Rattus norvegicus [36]) | Activity (Rattus norvegicus [40]) | Activity (Rattus norvegicus [42]) | Activity (Mus musculus [44]) | Activity (Rattus norvegicus [45]) | Activity (Rattus norvegicus [46]) | Activity (Mus musculus [47]) | Activity (Mus musculus [54])
active: Activity (Mus musculus [15]) | Activity (Mus musculus [17]) | Activity (Mus musculus [22]) | Activity (Mus musculus [30]) | Activity (Mus musculus [52])
0.5 h: Time (Mus musculus [1])
Toxic: Activity (Mus musculus [3]) | Activity (Mus musculus [29])
0.25 h: Time (Mus musculus [7]) | Time (Mus musculus [19])
1.6: selectivity ratio [26]
218 µmol/kg: ED50 (Mus musculus [18])
166 µmol/kg: TD50 at 0.25 h [13]
119 µmol/kg: ED50 (Mus musculus [27])
-3.8 g: Activity (Rattus norvegicus [38])
-25 g: Activity (Rattus norvegicus [49])
